Results as given in ChEMBL document CHEMBL1134016, “Different antagonist binding properties of human and rat histamine H3 receptors” (Bioorg Med Chem Lett, 2001).

Columns and labels:
Histamine H3 receptor [1] = target: T1, Histamine H3 receptor (Homo sapiens, UniProt Q9Y5N1); assay: biochemical; format: cell-based, CHO-K1
Description: Inhibition of [125I]iodoproxyfan binding to human histamine H3 receptor of CHO-K1 cells

Histamine H3 receptor [2] = target: T2, Histamine H3 receptor (Rattus norvegicus, UniProt Q9QYN8); assay: biochemical; format: cell-based, CHO-K1
Description: Inhibition of [125I]iodoproxyfan from rat histamine H3 receptor expressed in CHO-K1 cells

Histamine H3 receptor [3] = target: T1, Histamine H3 receptor; assay: Ratio of binding affinity of rat histamine H3 receptor to that of human histamine H3 receptor;1:6
Histamine H3 receptor [4] = target: T1, Histamine H3 receptor; assay: Ratio of binding affinity of rat histamine H3 receptor to that of human histamine H3 receptor; 1:3
Histamine H3 receptor [5] = target: T2, Histamine H3 receptor; assay: Binding affinity to rat Histamine H3 receptor in CHO-K1 cells using [125I]iodoproxyfan as radioligand; format: cell-based
Histamine H3 receptor [6] = target: T1, Histamine H3 receptor; assay: Ratio of binding affinity of rat histamine H3 receptor to that of human histamine H3 receptor; 1:12
Histamine H3 receptor [7] = target: T1, Histamine H3 receptor; assay: Ratio of binding affinity of rat histamine H3 receptor to that of human histamine H3 receptor;1:10

T2 sequence (Q9QYN8 whole entry): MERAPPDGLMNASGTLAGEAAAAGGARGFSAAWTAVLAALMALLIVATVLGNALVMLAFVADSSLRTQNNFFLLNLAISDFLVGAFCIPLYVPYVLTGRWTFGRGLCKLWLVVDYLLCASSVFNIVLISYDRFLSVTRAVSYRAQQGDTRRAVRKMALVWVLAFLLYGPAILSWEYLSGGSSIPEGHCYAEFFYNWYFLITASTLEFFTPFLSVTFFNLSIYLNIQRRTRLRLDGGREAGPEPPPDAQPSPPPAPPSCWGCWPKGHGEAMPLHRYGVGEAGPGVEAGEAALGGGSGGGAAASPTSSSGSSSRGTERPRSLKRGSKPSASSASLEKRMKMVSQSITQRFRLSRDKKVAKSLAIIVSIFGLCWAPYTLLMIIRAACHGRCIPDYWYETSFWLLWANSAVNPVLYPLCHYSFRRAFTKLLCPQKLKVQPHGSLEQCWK
T1 sequence (Q9Y5N1 whole entry): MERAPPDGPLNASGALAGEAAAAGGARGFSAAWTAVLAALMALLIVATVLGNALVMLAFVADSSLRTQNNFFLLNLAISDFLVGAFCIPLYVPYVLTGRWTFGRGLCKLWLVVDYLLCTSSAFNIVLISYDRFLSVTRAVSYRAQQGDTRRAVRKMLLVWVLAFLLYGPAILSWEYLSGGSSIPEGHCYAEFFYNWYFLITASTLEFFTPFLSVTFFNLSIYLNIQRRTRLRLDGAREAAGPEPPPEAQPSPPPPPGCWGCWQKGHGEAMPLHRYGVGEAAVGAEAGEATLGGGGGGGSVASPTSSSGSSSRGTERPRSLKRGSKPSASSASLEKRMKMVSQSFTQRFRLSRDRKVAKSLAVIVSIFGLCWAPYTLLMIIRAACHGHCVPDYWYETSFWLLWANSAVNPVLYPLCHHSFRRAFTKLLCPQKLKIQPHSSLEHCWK

SMILES	Ki (Histamine H3 receptor [1])	Ki (Histamine H3 receptor [2])	other results
c1ccc(COCCCc2c[nH]cn2)cc1 [PROXYFAN]	2.7 nM	2.9 nM	–
COc1ccc(OCCCc2c[nH]cn2)cc1	47 nM	7.9 nM	Ratio (Histamine H3 receptor [3]): 6
Ic1ccc(COCCCc2c[nH]cn2)cc1 [IODOPROXYFAN]	41 nM	71 nM	–
c1ccc(OCCCc2c[nH]cn2)cc1	27 nM	–	–
S=C(NC1CCCCC1)N1CCC(c2cnc[nH]2)CC1 [THIOPERAMIDE]	–	–	Ki (Histamine H3 receptor [5]): 6.5 nM
CC(=O)c1ccc(OCCc2c[nH]cn2)cc1	–	–	Ratio (Histamine H3 receptor [6]): 12
CC(=O)c1ccc(SCCc2c[nH]cn2)cc1	–	–	Ratio (Histamine H3 receptor [7]): 10
CC(=O)c1ccc(SCCCc2c[nH]cn2)cc1	18 nM	44 nM	–

Further lines, with some results ahead:

Ki (Histamine H3 receptor [1])	Ki (Histamine H3 receptor [2])	SMILES	other results
87 nM	29 nM	CC(=O)c1ccc(OCCCc2c[nH]cn2)cc1	Ratio (Histamine H3 receptor [4]): 3
1.1 nM	0.11 nM	CC(=O)c1ccc(SCCc2cnc[nH]2)cc1	–
–	3.9 nM	O=C(c1ccc(OCCCc2cnc[nH]2)cc1)C1CC1 [CIPROXIFAN]	–
19 nM	36 nM	CC(=O)c1ccc(OCCCCc2cnc[nH]2)cc1	–
42 nM	3.6 nM	CC(=O)c1ccc(OCCc2cnc[nH]2)cc1	–
